This data set in a line: pharmacokinetic profile of EP 1572 after oral administration in healthy male subjects. The conditions noted are these: human, plasma EP 1572, oral, mean ± SEM; for AUC(0-t): read-out: AUC (0-300) (converted). It is filed as in vivo. On the procedure: After a provocative test with EP 1572, the pharmacokinetic profile of EP 1572 and the level of GH released in response to its oral administration were established in 36 healthy male subjects at various doses.
From the subject a blood sample was drawn at 30 and 15 minutes before the administration of EP 1572. A sample of blood was taken from the subject immediately before the aqueous formulation containing 0.5 mg/kg of EP 1572 was orally administered to the subject. Further blood samples were taken from the subject at 15, 30, 60, 90, 120, 150, 180, 210, 240, 270 and 300 minutes from administration and a portion of each sample processed according to the assay protocol outlined below. The level of GH present in each sample was determined by the assay method outlined below and the peak concentration (Cmax) for the subject determined. The remainder of the sample was used to determine the level of EP 1572 present in the systemic circulation (as outlined below).
The organic components in human plasma were extracted using a total of […] of an ethyl acetate/iso-propanol mixture (82.5% and 17.5%, respectively). […] Quantification was performed with EP 1573 as an internal standard (peak area ratio evaluation).
Further dosing studies were carried out wherein the subjects were administered doses of 0.005, 0.05, 0.25 and 0.125 mg/kg each, using the formulations described above.

Read-outs that look alike come from different tables or passages of the source.

A word on the Cmax: it is the maximum level reached in the sampled fluid or tissue. What is called Tmax is the time at which the peak concentration occurs. For `CC(C)(N)C(=O)N[C@H](Cc1c[nH]c2ccccc12)C(=O)N[C@H](Cc1c[nH]c2ccccc12)NC=O` [EP 1572, H-Aib-D-Trp-D-gTrp-CHO], the Cmax reads like this: (0.05 mg/kg) 0.86 ± 0.24 ng/mL; (0.125 mg/kg) 2.33 ± 0.39 ng/mL; (0.25 mg/kg) 3.92 ± 0.57 ng/mL; (0.5 mg/kg) 7.59 ± 0.83 ng/mL. For the same compound, the Tmax was 75 min (0.05 mg/kg), 62.5 min (0.125 mg/kg), 55 min (0.25 mg/kg) and 50 min (0.5 mg/kg). Moreover, the AUC(0-t) reads like this: (0.05 mg/kg) 1.74 ng·h/mL; (0.125 mg/kg) 5.35 ng·h/mL; (0.25 mg/kg) 8.67 ng·h/mL; (0.5 mg/kg) 16.1 ng·h/mL.

Values taken from US8192719B2, “Methods and kits to diagnose growth hormone deficiency by oral administration of EP 1572 or EP 1573 compounds” (Aeterna Zentaris GmbH, priority 2006, dated 2012).
